For data set [1] the following is noted: cited from earlier work.
The nature of data set [2]: Lonafarnib serum concentration in HDV patients, Example 3. The following applies: for LNF Serum Concentration at Week 6 / concentration at 6 weeks: oral; for LNF Serum Concentration at Week 6: listed as LNF; for concentration at 6 weeks: human, serum, po, read-out: LNF Serum Concentration at Week 6. Type of data set: in vivo, human. The method, then: Serum levels of lonafarnib can be measured using art-known methods. As used herein, a serum lonafarnib level or concentration can be measured from a serum sample obtained from a subject periodically (such as weekly, biweekly, monthly or according to other schedules) and the levels during intervening periods can be extrapolated. For example, if a measurement of 4,000 ng/ml is obtained at 4 weeks and a measurement of 6,000 ng/ml is obtained at 6 weeks, for purposes of this analysis it is concluded that the serum level during the intervening two weeks ranged between 4,000 and 6,000 ng/ml. In some embodiments the first measurement is made no earlier than one week after the initiation of oral therapy.
This example describes the anti-HDV effect of combination therapy with separately formulated lonafarnib and ritonavir at several combinations of dosages. Eight patients with chronic HDV infection were divided into four groups and treated with different dose combinations of separately formulated lonafarnib and ritonavir (orally administered) for 42 days under the regimens summarized in Table 10. The patients were followed for an additional period of time after discontinuation of therapy.

The conditions of data set [3]: formulated in crystalline forms, animals; cited from earlier work.
Where [4] appears, read: Group 2 (Patients 3-4): lonafarnib 100 mg BID + ritonavir 50 mg QD.
[5] abbreviates: Group 3 (Patients 5-6): lonafarnib 100 mg QD + ritonavir 100 mg QD.
The mark [6] stands for this setting: Group 4 (Patients 7-8): lonafarnib 150 mg QD + ritonavir 100 mg QD.

Where two headings read alike, the source gives them in different places.

For the compound `NC(=O)N1CCC(CC(=O)N2CCC([C@H]3c4ncc(Br)cc4CCc4cc(Cl)cc(Br)c43)CC2)CC1` [lonafarnib], the stability in solution result in data set [1] (by pH) was “stable at neutral pH but will hydrolyze in acidic or basic conditions”. In data set [1], the water solubility result is on record as “poorly water soluble”. The “LNF Serum Concentration at Week 6” value in data set [2] (setting [4]) is 3044 ng/mL; in data set [2] (setting [5]), 1640 ng/mL; in data set [2] (setting [6]), 1830 ng/mL. Moreover, the “lonafarnib serum levels (FIG. 6)” value in data set [2] (Patient 8, reduced correlation with HDV viral load) was ~2,000 ng/mL. Besides, the LNF serum concentrations in data set [2] (QD dosing of ritonavir) is 2500 to 3500 ng/mL. Also, the concentration at 6 weeks is 4020 ng/mL in data set [2] (setting [4]), 2340 ng/mL in data set [2] (setting [5]) and 1840 ng/mL in data set [2] (setting [6]). For the same compound, the “lonafarnib serum levels (FIG. 5)” value in data set [2] (one patient, 100 mg BID lonafarnib + 100 mg QD ritonavir, inverse correlation with HDV viral load) is given as ~5,000 ng/mL. For the same compound, the bioavailability result in data set [3] is “low and variable”.

The values above are taken from patent US11517532B2, “Methods of treating hepatitis delta virus infection” (Eiger BioPharmaceuticals, Inc., priority 2015, dated 2022).
